Here are results for one compound from patent publication US20190276399A1, “POLYMORPH OF NINTEDANIB” (Olon S.P.A., priority 2016, published 2019).

The series in a line: solubility in organic solvents and in water. The format is physicochemical. The settings on record: in various organic solvents and in water; compared with nintedanib ethanesulphonate hemihydrate form known from WO 2004/013099.

For the compound `COC(=O)c1ccc2c(c1)NC(=O)/C2=C(\Nc1ccc(N(C)C(=O)CN2CCN(C)CC2)cc1)c1ccccc1` [methyl-(3Z)-3-{[(4-{methyl[(4-methylpiperazin-1-yl)acetyl]amino}phenyl)amino](phenyl)methylidene}-2-oxo-2,3-dihydro-1H-indole-6-carboxylate], the solubility result was “better solubility in various organic solvents and in water”.
